Data published in the supplement of paper PMC10307832.

What was measured:
Test in all cases: relative viability (nuclei count vs DMSO), 5 days (fraction); higher = more cells survive
Everolimus + Alpelisib = compound: CO[C@H]1C[C@@H]2CC[C@@H](C)[C@@](O)(O2)C(=O)C(=O)N2CCCC[C@H]2C(=O)O[C@H]([C@H](C)C[C@@H]2CC[C@@H](OCCO)[C@H](OC)C2)CC(=O)[C@H](C)/C=C(\C)[C@@H](O)[C@@H](OC)C(=O)[C@H](C)C[C@H](C)/C=C/C=C/C=C/1C [Everolimus] + Cc1nc(NC(=O)N2CCC[C@H]2C(N)=O)sc1-c1ccnc(C(C)(C)C(F)(F)F)c1 [Alpelisib] (partner 2 µM)
How it was run: (§1)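 Lung cancer cell lines were pin-tool dosed in 1536-well plates on the day after seeding, with either a lone drug or a fixed anchor-drug dose plus five library-drug doses (not always all listed) in √10 steps. Nuclei were counted on 4× images after 5 days. Relative viability is the ratio of treated-well to vehicle-well nuclei counts, with each value a median of duplicate plates.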

Everolimus + Navitoclax = compound: CO[C@H]1C[C@@H]2CC[C@@H](C)[C@@](O)(O2)C(=O)C(=O)N2CCCC[C@H]2C(=O)O[C@H]([C@H](C)C[C@@H]2CC[C@@H](OCCO)[C@H](OC)C2)CC(=O)[C@H](C)/C=C(\C)[C@@H](O)[C@@H](OC)C(=O)[C@H](C)C[C@H](C)/C=C/C=C/C=C/1C [Everolimus] + CC1(C)CCC(c2ccc(Cl)cc2)=C(CN2CCN(c3ccc(C(=O)NS(=O)(=O)c4ccc(N[C@H](CCN5CCOCC5)CSc5ccccc5)c(S(=O)(=O)C(F)(F)F)c4)cc3)CC2)C1 [Navitoclax] (partner 0.5 µM)
How it was run: as §1

Everolimus + Linsitinib = compound: CO[C@H]1C[C@@H]2CC[C@@H](C)[C@@](O)(O2)C(=O)C(=O)N2CCCC[C@H]2C(=O)O[C@H]([C@H](C)C[C@@H]2CC[C@@H](OCCO)[C@H](OC)C2)CC(=O)[C@H](C)/C=C(\C)[C@@H](O)[C@@H](OC)C(=O)[C@H](C)C[C@H](C)/C=C/C=C/C=C/1C [Everolimus] + C[C@]1(O)C[C@@H](c2nc(-c3ccc4ccc(-c5ccccc5)nc4c3)c3c(N)nccn32)C1 [Linsitinib] (partner 1 µM)
How it was run: as §1

Everolimus + Vorinostat = compound: CO[C@H]1C[C@@H]2CC[C@@H](C)[C@@](O)(O2)C(=O)C(=O)N2CCCC[C@H]2C(=O)O[C@H]([C@H](C)C[C@@H]2CC[C@@H](OCCO)[C@H](OC)C2)CC(=O)[C@H](C)/C=C(\C)[C@@H](O)[C@@H](OC)C(=O)[C@H](C)C[C@H](C)/C=C/C=C/C=C/1C [Everolimus] + O=C(CCCCCCC(=O)Nc1ccccc1)NO [Vorinostat] (partner 1 µM)
How it was run: as §1

Cell Line	relative viability (Everolimus + Alpelisib; first compound 0.01 µM)	relative viability (Everolimus + Alpelisib; first compound 0.03162 µM)	relative viability (Everolimus + Alpelisib; first compound 0.1 µM)	relative viability (Everolimus + Alpelisib; first compound 0.3162 µM)	relative viability (Everolimus + Alpelisib; first compound 1 µM)	relative viability (Everolimus + Navitoclax; first compound 0.01 µM)	relative viability (Everolimus + Navitoclax; first compound 0.03162 µM)	relative viability (Everolimus + Navitoclax; first compound 0.1 µM)	relative viability (Everolimus + Navitoclax; first compound 0.3162 µM)	relative viability (Everolimus + Navitoclax; first compound 1 µM)	relative viability (Everolimus + Linsitinib; first compound 0.01 µM)	relative viability (Everolimus + Linsitinib; first compound 0.03162 µM)	relative viability (Everolimus + Linsitinib; first compound 0.1 µM)	relative viability (Everolimus + Linsitinib; first compound 0.3162 µM)	relative viability (Everolimus + Linsitinib; first compound 1 µM)	relative viability (Everolimus + Vorinostat; first compound 0.01 µM)	relative viability (Everolimus + Vorinostat; first compound 0.03162 µM)	relative viability (Everolimus + Vorinostat; first compound 0.1 µM)	relative viability (Everolimus + Vorinostat; first compound 0.3162 µM)	relative viability (Everolimus + Vorinostat; first compound 1 µM)
LCLC-97TM1	0.204	0.178	0.164	0.167	0.139	0.417	0.388	0.255	0.217	0.239	0.141	0.142	0.147	0.129	0.151	0.62	0.616	0.688	0.659	0.379
HARA	0.564	0.457	0.499	0.507	0.412	1.14	1.2	1.12	1.11	0.898	0.839	0.8	0.646	0.674	0.713	0.431	0.494	0.407	0.371	0.485
HCC-78	0.244	0.244	0.213	0.234	0.228	0.853	0.421	0.424	0.589	0.455	0.482	0.319	0.272	0.28	0.293	0.401	0.372	0.416	0.367	0.307
NCI-H1666	0.776	0.509	0.584	0.496	0.511	0.766	0.687	0.508	0.559	0.42	0.644	0.407	0.468	0.455	0.468	1.04	1.08	1.04	1.05	0.92
NCI-H2347	0.979	0.872	0.564	0.783	0.826	0.906	0.453	0.26	0.453	0.429	0.912	0.911	0.581	0.798	0.769	0.565	0.556	0.455	0.419	0.551
NCI-H838	0.392	0.385	0.382	0.343	0.347	0.57	0.54	0.499	0.588	0.495	0.329	0.372	0.303	0.326	0.318	0.541	0.539	0.554	0.573	0.471
NCI-H2023	0.411	0.326	0.302	0.271	0.215	0.763	0.471	0.529	0.536	0.348	0.301	0.323	0.303	0.282	0.219	0.496	0.441	0.341	0.372	0.379
201T	0.919	0.893	0.859	0.847	0.893	1	1.09	1.05	1.07	1.03	0.805	0.876	0.78	0.78	0.823	0.844	0.908	0.81	0.806	0.809
NCI-H1915	0.806	0.833	0.784	0.732	0.723	0.782	0.774	0.737	0.72	0.749	0.994	0.973	0.935	0.914	0.827	0.389	0.387	0.431	0.37	0.364
NCI-H2009	0.763	0.741	0.791	0.846	0.906	1.04	1.09	0.898	0.814	0.836	0.875	0.897	0.901	0.887	0.795	0.563	0.611	0.54	0.54	0.503
BEN	0.545	0.399	0.319	0.436	0.344	0.0532	0.0623	0.063	0.0598	0.0645	0.571	0.355	0.338	0.334	0.326	0.401	0.337	0.368	0.353	0.391
PC-14	0.796	0.661	0.62	0.589	0.476	1.06	1.05	0.88	0.911	0.864	0.937	1	0.945	0.82	0.724	0.379	0.576	0.486	0.528	0.421
SK-MES-1	0.486	0.461		0.44	0.368	0.948	0.688		0.715	0.579	0.964	0.661	0.689	0.606	0.511	0.897	1	1	0.887	0.743
NCI-H727	0.399	0.328	0.266	0.308	0.364	0.263	0.211	0.179	0.231	0.208	0.207	0.2	0.203	0.291	0.362	0.915	0.797	0.79	0.922	0.886
NCI-H1355	0.415	0.277	0.309	0.327	0.321	0.541	0.415	0.349	0.394	0.377	0.412	0.322	0.348	0.349	0.336	0.385	0.331	0.341	0.365	0.295
NCI-H1975	0.494	0.454	0.456	0.376	0.339	1.01	0.794	0.802	0.798	0.606	0.747	0.618	0.672	0.665	0.597	0.599	0.587	0.608	0.565	0.542
LK-2	0.827		0.607	0.568	0.556	0.851	0.557	0.408	0.508	0.461	0.426	0.497	0.286	0.282	0.198	0.243	0.174	0.188	0.21	0.189
NCI-H661	0.438	0.345	0.35	0.383	0.309						0.473	0.575	0.361	0.319	0.306	0.607	0.687	0.671	0.678	0.555

Cell Line	relative viability (Everolimus + Alpelisib; first compound 0.01 µM)	relative viability (Everolimus + Alpelisib; first compound 0.03162 µM)	relative viability (Everolimus + Alpelisib; first compound 0.1 µM)	relative viability (Everolimus + Alpelisib; first compound 0.3162 µM)	relative viability (Everolimus + Alpelisib; first compound 1 µM)	relative viability (Everolimus + Navitoclax; first compound 0.01 µM)	relative viability (Everolimus + Navitoclax; first compound 0.03162 µM)	relative viability (Everolimus + Navitoclax; first compound 0.1 µM)	relative viability (Everolimus + Navitoclax; first compound 0.3162 µM)	relative viability (Everolimus + Navitoclax; first compound 1 µM)	relative viability (Everolimus + Linsitinib; first compound 0.01 µM)	relative viability (Everolimus + Linsitinib; first compound 0.03162 µM)	relative viability (Everolimus + Linsitinib; first compound 0.1 µM)	relative viability (Everolimus + Linsitinib; first compound 0.3162 µM)	relative viability (Everolimus + Linsitinib; first compound 1 µM)	relative viability (Everolimus + Vorinostat; first compound 0.01 µM)	relative viability (Everolimus + Vorinostat; first compound 0.03162 µM)	relative viability (Everolimus + Vorinostat; first compound 0.1 µM)	relative viability (Everolimus + Vorinostat; first compound 0.3162 µM)	relative viability (Everolimus + Vorinostat; first compound 1 µM)
NCI-H1648																0.422	0.383	0.307	0.423	0.406
NCI-H1703	0.213	0.22	0.29	0.239	0.338	0.443	0.453	0.553	0.457	0.671	0.293	0.281	0.447	0.488	0.463					
EBC-1	0.278	0.348	0.284	0.33	0.279	0.211	0.217	0.153	0.22	0.222	0.263	0.218	0.306	0.205	0.298					
SW 900																0.41	0.301	0.339	0.37	0.266
NCI-H522																0.788	0.784	0.589	0.726	0.731
ABC-1	0.682	0.617	0.636	0.678	0.539						0.599	0.351	0.55	0.446	0.535	0.56		0.741		0.941
NCI-H1792	0.618	0.5	0.312	0.222	0.212	0.316	0.251	0.29	0.244	0.362	0.449	0.38	0.202	0.148	0.159					
NCI-H1563	0.715	0.717	0.662	0.641	0.685						0.993	0.757	0.766	0.683	0.734					
NCI-H1299	1.04	1.09	1.01	1.06	1.06	1.03	1.03	1.04	1.08	1.07	0.855	1	0.544	0.848	0.819					
ChaGo-K-1						1.01	0.558	0.951	0.837	1.01						0.678	0.688	0.62	0.662	0.726
NCI-H2170	0.365	0.367	0.333	0.312	0.354	0.235	0.22	0.202	0.184	0.236						0.326	0.314	0.27	0.309	0.338
NCI-H2342																0.559	0.438	0.524	0.56	0.633
A549	0.328	0.292	0.272	0.323	0.204	0.64	0.455	0.452	0.474	0.458	0.484	0.308	0.231	0.241	0.223					
NCI-H358	0.504	0.362	0.438	0.445	0.402						0.421	0.533	0.544	0.388	0.347	0.431	0.434	0.388	0.417	0.47
NCI-H650	1.05		0.752	0.592	0.587						0.53		0.506	0.512	0.557	0.324	0.212	0.293	0.212	0.254
LCLC-103H	0.887	0.855	0.846	0.776	0.639						1.04	0.905	0.864	0.831	0.747	0.747	0.755	0.734	0.712	0.617
NCI-H1650						1.2	0.824	1.06	1.2	0.876						0.396	0.388	0.29	0.365	0.383
Calu-6	0.65	0.604	0.593	0.608	0.614	0.774	0.714	0.779	0.7	0.532	0.647	0.707	0.663	0.762	0.778					
